One series deals with T1, RET/C634R-V804M (Homo sapiens, UniProt P07949, C634R/V804M).
T1 construct: expressed in transfected cells; host or cells: HEK293
The series can be described thus: RET auto-phosphorylation immunoblot in transfected HEK293 cells. The series is classed as cell-based. The settings on record: 1 nM, 2 hrs, cells expressing RET/C634R-V804M. The source says:
FIG. 2: Photographs of blots showing inhibition of phosphorylation of gate-keeper RET point mutant and rearranged RET oncoproteins by Pz-1 or vehicle (NT: not treated). HEK293 cells were transiently transfected with vectors expressing RET/C634R-V804M mutant (V804 is the gate-keeper RET residue), or RET/PTC1 (CCDC6-RET, found in papillary thyroid carcinoma and lung adenocarcinoma), RET/PTC3 (NCOA4-RET, found in papillary thyroid carcinoma and lung adenocarcinoma), or KIF5B-RET (found in lung adenocarcinoma). After 36 hr from transfection, cells were serum-starved for 12 hr and then treated for 2 hr with indicated concentrations of Pz-1. 50 μg of total cell lysates were subjected to immunoblotting with anti-phospho-Y1062 (αp1062) and anti-phospho-Y905 (αp905) RET antibodies. The blots were normalized using anti-RET (αRET) antibody.
The inhibition of RET auto-phosphorylation by Pz-1 was measured in several different cell lines including NIH3T3 fibroblasts expressing RET/C634Y or RET/M918T, TT expressing RET/C634W (MTC), Nthy-ory-3-1 (thyroid, non-transformed with RET; negative control), HEK293/RET/PTC1 (CCDC6-RET that can be found in PTC & lung cancer), HEK293/RET-KIF5B (that can be found in lung cancer), HEK293/RET/PTC3 (NCOA4-RET, that can be found in PTC & lung cancer), and HEK293 transfected with RET/C634R-V804M (FIGS. 1-3). […]
For orientation: Immunoblotting shows a protein as a band on a membrane.

For series [1], the system named is parental NIH3T3 fibroblasts. The series can be described thus: Growth of parental NIH3T3 fibroblasts. To be noted: up to 1000 nM, 3 days. The series is classed as cell-based.
A further series deals with T2, VEGFR2 (Mus musculus, UniProt P35918).
T2 construct: from tissue; host or cells: subcutaneous tumours (NIH3T3 RET/C634Y or NIH3T3 HRAS/G12V) in BALB/c nu/nu mice
The series can be described thus: In vivo target inhibition, pVEGFR2 in RET/C634Y-induced tumors. Also noted: species or system nude mice. The settings on record: 48 hr, 1.0 or 3.0 mg/kg daily. How it is done: FIG. 9: Photographs of blots showing effects of Pz-1 on cellular phosphorylation events in tumors induced in nude mice (from FIG. 8) by injection of NIH3T3 fibroblasts transformed by RET/C634Y or HRAS/G12V. […] Some of the vehicle-treated tumors, at the end of the tumor growth experiment described in FIG. 8, were treated for 48 hr with different doses of Pz-1 (TR) or left untreated (NT). At the end of the treatment, 50 μg of tumor protein lysates were subjected to immunoblotting with anti-phospho-Y1062 (αp1062) and anti-phospho-905 (αpY905) RET antibodies, anti-phospho-MAPK (αpMAPK, T302/Y304), anti-phospho-SHC (αpSHC, Y317), anti-phospho-p70S6K (αpp70S6K, T389), anti-phospho-S6RP (αpS6RP, S235/S236), and anti-phospho-VEGFR2 (αpVEGFR2 pY1175) antibodies. The blots were normalized using anti-RET (αRET), anti-SHC (αSHC), anti-MAPK (αMAPK), anti-p70S6K (αp70S6K), anti-S6RP (αS6RP) or anti-VEGFR2 (αVEGFR2) antibodies.
Some of the vehicle-treated tumors, at the end of the tumor growth experiment reported in FIG. 8, were treated for 48 hr with different doses of Pz-1 (1.0 or 3.0 mg/kg daily) or left untreated. […]

A further series addresses CYP2D6 (Homo sapiens, UniProt P10635). Kind of series: CYP inhibition. In kind it is in vitro ADME. To be noted: read-out: CYP 2D6 IC50.

T2 sequence (P35918 20-1345): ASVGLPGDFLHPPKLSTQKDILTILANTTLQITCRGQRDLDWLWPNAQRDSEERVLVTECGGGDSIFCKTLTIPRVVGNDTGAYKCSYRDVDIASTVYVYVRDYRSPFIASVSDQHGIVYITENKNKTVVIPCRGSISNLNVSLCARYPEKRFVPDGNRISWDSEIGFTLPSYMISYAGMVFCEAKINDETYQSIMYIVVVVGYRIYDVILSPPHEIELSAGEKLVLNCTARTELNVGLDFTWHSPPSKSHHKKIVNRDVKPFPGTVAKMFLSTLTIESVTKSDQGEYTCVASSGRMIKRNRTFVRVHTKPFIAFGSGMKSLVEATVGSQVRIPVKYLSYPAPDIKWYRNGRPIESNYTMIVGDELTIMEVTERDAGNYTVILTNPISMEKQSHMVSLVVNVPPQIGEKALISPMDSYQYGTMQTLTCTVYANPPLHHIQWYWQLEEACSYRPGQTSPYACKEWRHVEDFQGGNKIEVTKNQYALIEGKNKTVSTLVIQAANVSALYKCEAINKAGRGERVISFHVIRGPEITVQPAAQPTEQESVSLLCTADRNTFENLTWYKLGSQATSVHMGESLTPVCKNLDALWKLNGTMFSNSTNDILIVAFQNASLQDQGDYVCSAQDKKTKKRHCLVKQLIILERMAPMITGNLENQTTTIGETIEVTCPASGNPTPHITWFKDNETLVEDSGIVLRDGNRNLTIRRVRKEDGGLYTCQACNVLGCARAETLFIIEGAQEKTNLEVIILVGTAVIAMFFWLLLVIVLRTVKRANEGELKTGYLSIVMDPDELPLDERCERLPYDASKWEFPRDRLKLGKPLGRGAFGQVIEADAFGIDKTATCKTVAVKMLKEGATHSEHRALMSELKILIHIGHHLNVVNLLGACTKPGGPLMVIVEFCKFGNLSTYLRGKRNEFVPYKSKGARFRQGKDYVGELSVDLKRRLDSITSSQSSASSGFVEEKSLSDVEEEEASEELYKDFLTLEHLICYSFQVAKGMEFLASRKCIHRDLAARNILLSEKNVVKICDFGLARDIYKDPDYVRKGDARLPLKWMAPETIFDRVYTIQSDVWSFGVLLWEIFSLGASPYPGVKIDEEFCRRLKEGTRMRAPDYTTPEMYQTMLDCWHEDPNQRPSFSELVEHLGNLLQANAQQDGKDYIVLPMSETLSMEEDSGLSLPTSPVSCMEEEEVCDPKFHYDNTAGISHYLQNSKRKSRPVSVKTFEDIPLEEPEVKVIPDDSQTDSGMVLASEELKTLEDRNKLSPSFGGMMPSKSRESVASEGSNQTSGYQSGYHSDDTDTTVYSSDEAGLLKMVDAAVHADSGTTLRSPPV
Sequence of CYP2D6 (P10635 whole entry): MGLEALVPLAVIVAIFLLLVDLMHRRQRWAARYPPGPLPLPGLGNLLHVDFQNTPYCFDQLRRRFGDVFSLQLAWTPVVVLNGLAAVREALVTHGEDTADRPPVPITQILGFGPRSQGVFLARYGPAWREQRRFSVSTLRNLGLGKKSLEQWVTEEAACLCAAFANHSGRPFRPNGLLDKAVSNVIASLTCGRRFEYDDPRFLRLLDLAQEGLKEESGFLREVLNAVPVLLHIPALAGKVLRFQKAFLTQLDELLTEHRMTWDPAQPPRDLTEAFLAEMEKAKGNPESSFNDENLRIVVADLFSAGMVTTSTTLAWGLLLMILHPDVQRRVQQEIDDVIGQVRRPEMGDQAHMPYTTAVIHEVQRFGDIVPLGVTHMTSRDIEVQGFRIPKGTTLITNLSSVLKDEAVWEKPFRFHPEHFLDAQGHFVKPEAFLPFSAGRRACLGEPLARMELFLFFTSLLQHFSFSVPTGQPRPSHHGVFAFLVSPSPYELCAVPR
T1 sequence (P07949 29-1072 isoform P07949-2 C634R/V804M limits assumed): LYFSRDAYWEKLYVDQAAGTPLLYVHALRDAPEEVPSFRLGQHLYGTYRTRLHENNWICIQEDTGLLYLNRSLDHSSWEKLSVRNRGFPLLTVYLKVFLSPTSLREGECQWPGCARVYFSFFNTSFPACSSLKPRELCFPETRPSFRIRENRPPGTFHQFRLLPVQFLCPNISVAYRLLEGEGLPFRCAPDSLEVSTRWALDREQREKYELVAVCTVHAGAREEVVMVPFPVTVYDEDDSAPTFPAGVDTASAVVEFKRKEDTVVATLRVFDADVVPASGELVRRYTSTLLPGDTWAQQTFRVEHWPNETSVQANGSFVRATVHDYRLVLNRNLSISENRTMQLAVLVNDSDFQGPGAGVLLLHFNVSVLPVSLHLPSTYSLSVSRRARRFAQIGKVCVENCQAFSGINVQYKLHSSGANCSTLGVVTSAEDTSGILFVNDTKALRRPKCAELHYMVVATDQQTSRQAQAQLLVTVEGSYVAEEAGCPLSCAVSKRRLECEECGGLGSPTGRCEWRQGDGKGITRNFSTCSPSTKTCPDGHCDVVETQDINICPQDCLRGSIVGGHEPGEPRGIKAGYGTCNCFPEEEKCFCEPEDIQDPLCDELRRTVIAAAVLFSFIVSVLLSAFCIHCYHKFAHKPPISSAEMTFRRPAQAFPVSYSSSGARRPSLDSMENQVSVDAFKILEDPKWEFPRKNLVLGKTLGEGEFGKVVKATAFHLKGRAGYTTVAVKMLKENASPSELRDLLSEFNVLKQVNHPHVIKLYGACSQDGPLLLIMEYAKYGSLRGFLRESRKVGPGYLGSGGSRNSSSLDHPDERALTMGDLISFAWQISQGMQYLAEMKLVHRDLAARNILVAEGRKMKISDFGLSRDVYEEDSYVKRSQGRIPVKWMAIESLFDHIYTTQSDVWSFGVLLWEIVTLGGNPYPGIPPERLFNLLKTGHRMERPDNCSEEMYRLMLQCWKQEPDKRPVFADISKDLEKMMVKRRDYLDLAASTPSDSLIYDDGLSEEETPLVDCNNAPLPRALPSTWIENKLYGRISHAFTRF

For the compound `Cn1cc(-c2ccc3c(c2)ncn3-c2ccc(CC(=O)Nc3cc(C(C)(C)C)on3)cc2)cn1` [Pz-1, N-(5-(tert-butyl)isoxazol-3-yl)-2-(4-(5-(1-methyl-1H-pyrazol-4-yl)-1H-benzo[d]imidazol-1-yl)phenyl)acetamide], on RET/C634R-V804M, the “inhibition of pRET” value is recorded as “strongly inhibited”. Further, the effect on growth entry in series [1] is “did not significantly reduce growth”. The pVEGFR2 in tumors entry at VEGFR2 is given as “inhibited”. Further, at CYP2D6, the 50% inhibitory concentration (IC50) (usually the point on the concentration scale where inhibition reaches its midpoint) stood at 13.8 µM.

For the origin of these results see US9988371B2, “Benzimidazole analogues and related methods” (The Arizona Board of Regents, on Behalf of the University …, priority 2014, dated 2018).
